The record followed here is patent publication US20080125447A1, “Combination Therapy” (priority 2004, published 2008).

For the test, the system named is Calu-6 tumour xenograft. As to the kind of experiment: Calu-6 tumour xenograft in vivo solid tumour model. The settings on record: once-daily oral, 28 days.

Turning to `COc1cc2c(Oc3ccc4[nH]c(C)cc4c3F)ncnc2cc1OCCCN1CCCC1` [AZD2171, 4-(4-fluoro-2-methyl-1H-indol-5-yloxy)-6-methoxy-7-(3-(pyrrolidin-1-yl)propoxy)quinazoline], the “inhibition of Calu-6 tumour xenograft growth” value (shortened to “inhibition”) (1.5 mg/kg/day, P<0.01 one-tailed t test) amounted to 49%; the “inhibition” value (3 mg/kg/day, P<0.0001 one-tailed t test) is recorded as 69%; the “inhibition” value (6 mg/kg/day, P<0.0001 one-tailed t test) was 91%.
